Measured values as given in PubChem BioAssay AID720666 (NMMLSC, 2013).
Active and inactive are the calls of the source.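 The calls were made as follows: active = over 50% inhibition of PKC substrate or ERK kinase phosphorylation; inactive = the rest.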

Tested on: TALL-104 cells, PKC substrate phosphorylation, flow cytometry
Assay: blockers of stimulated PKC activity in TALL-104 – TALL-104 cells, flow cytometry, CherryPick01, mechanism study for lytic granule exocytosis inhibitor project, late-stage follow-up (AID 720666)
Conditions: at 30 µM; active compounds read high

SMILES | inhibition
CC(C)(c1ccccc1)c1ccc(OCC(O)CNC2CCN(Cc3ccccc3)CC2)cc1 (configuration not stated) | -98.8% (inactive)
CCCCC[C@@H](C)N1C[C@H](COCc2ccccc2)Oc2cc(N3CC[C@@H](N(C)C)C3)ccc2S1(=O)=O | -58.8% (inactive)
O=c1c2ccccc2sn1-c1ccccc1 | -24.9% (inactive)
CC1COCC(C)N1C1=C(Cl)C(=O)c2ccccc2C1=O (configuration not stated) | -212% (inactive)
O=C1CC(Sc2nnnn2-c2ccccc2)C(=O)N1c1cccc(Cl)c1 (configuration not stated) | -30.8% (inactive)
N#Cc1c(Nc2ccccc2Cl)s[nH]c1=O | -74.8% (inactive)
COc1ccc(-c2cc(NC=O)c3ncc(-c4ccccc4)n3c2)cc1OC | -38.6% (inactive)
Cc1ccc(Nc2nc(NCc3ccco3)c3ccccc3n2)cc1 | -25.2% (inactive)
CCOC(=O)c1c(NC(=O)COc2ccccc2OCC)sc2c1CC(C)(C)NC2(C)C | -9.9% (inactive)
CC1=NOC(=O)/C1=C/c1ccc(-c2ccc(Cl)cc2)o1 | -44% (inactive)
CCN(CC)CCCNc1ccc(-c2nnc(-c3ccc(OCC(C)C)cc3)o2)cn1 | -94.2% (inactive)
COc1ccc(-c2cc(NC=O)c3ncc(-c4cccc(OC)c4)n3c2)cc1 | -43.6% (inactive)
Cc1cc(N2CCN(c3nc(-c4ccc([N+](=O)[O-])cc4)cs3)CC2)c2ccccc2n1 | -81.1% (inactive)
O=c1c2ccc(F)cc2sn1-c1ccccc1 | -40.1% (inactive)
COC(=O)c1c(NC(=O)c2nc3ccccc3s2)sc2c1CC(C)(C)NC2(C)C | -30.7% (inactive)
CC1=C(C)CS(=O)N(S(=O)(=O)c2ccc(Cl)cc2)C1 (configuration not stated) | -41.1% (inactive)
CN(C)CCNC(=O)c1ccc(-c2cn3c(-c4ccc(Oc5ccccc5)cc4)cnc3cn2)cc1 | 5.3% (inactive)
O=C(Cn1sc2ccccc2c1=O)NC12CC3CC(CC(C3)C1)C2 | -7.9% (inactive)
O=C(CN1C(=O)/C(=C\c2cccc(Br)c2)Oc2ccccc21)NCCCN1CCOCC1 | 6.3% (inactive)
CCCCC[C@@H](C)N1C[C@@H](COCc2ccccc2)Oc2cc(N3CC[C@@H](N(C)C)C3)ccc2S1(=O)=O | -3.7% (inactive)
COc1ccccc1CNc1nc(NCc2ccc(C(C)C)cc2)c2sccc2n1 | -50.7% (inactive)
O=C(Cn1sc2ccccc2c1=O)Nc1ccc(F)cc1 | -10.3% (inactive)
Cc1ccc(S(=O)(=O)n2ccc3c(OCCOCCNCc4ccc(F)cc4)cccc32)cc1 | -25.9% (inactive)
CCCCC[C@@H](C)N1C[C@@H](COCc2ccccc2)Oc2cc(N3CC[C@H](N(C)C)C3)ccc2S1(=O)=O | -45.9% (inactive)
COc1ccc(N2C(=O)CC(Sc3nnc(-c4ccccc4)o3)C2=O)cc1 (configuration not stated) | 1.3% (inactive)
COc1ccc(-n2sc3ccccc3c2=O)cc1 | 0% (inactive)
O=CNc1cc(-c2ccsc2)cn2c(-c3ccccc3)cnc12 | -35.4% (inactive)
